Experimental data as given in patent US11541055B2, “Inhibitors of human immunodeficiency virus replication” (ViiV Healthcare UK (No. 5) LIMITED, priority 2018, dated 2023).

Columns and labels:
[1] = Compound cytotoxicity, XTT-based colorimetric assay; type: cell-based; conditions: human; uninfected MT2 cells, day 4, XTT
Method in brief: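 Run under the antiviral-assay protocol but without virus. Viability was read on day 4 and CC50 values were derived from the readout.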

[2] = system: recombinant NL4-3 virus (Renilla luciferase) in MT-2 cells; assay: HIV cell culture assay (antiviral activity, luciferase readout); type: cell-based; conditions: Renilla, NL43
Method in brief: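 Antiviral EC50 was derived via the median effect equation from luciferase signal. The signal came from MT-2 cultures infected for 4–5 days with a nef-deleted, Renilla luciferase-expressing NL4-3 reporter virus (made in 293T cells) in the presence of compound dilutions.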

Structure (SMILES) | CC50 at 4 days [1] [nM] | EC50 [2] [nM]
CCc1cc(-c2ccc3c(=O)n(-c4ccc(C)c5c(NS(C)(=O)=O)nn(C)c45)c([C@H](Cc4cc(F)cc(F)c4)NC(=O)Cn4nc(C(F)F)c5c4C(F)(F)[C@@H]4C[C@H]54)nc3c2)nc(C)n1 (atropisomer, axis not shown) [Example 139, 2-[(2S,4R)-9-(difluoromethyl)-5,5-difluoro-7,8-diazatricyclo[4.3.0.0^2,^4]nona-1(6),8-dien-7-yl]-N-[(1S)-2-(3,5-difluorophenyl)-1-[7-(6-ethy1-2-methylpyrimidin-4-yl)-3-(3-methanesulfonamido-1,4-dimethyl-1H-indazol-7-yl)-4-oxo-3,4-dihydroquinazolin-2-yl]ethyl]acetamide] | > 500 | 0.13
CN(c1cccc(-c2ccc3c(=O)n(-c4ccc(Cl)c5c(NS(=O)(=O)C6CC6)nn(CC(F)F)c45)c([C@H](Cc4cc(F)cc(F)c4)NC(=O)Cn4nc(C(F)F)c5c4C(F)(F)[C@@H]4C[C@H]54)nc3c2)c1)S(C)(=O)=O (atropisomer, axis not shown) [Example 148, N-[(1S)-1-{3-[4-chloro-3-cyclopropanesulfonamido-1-(2,2-difluoroethyl)-1H-indazol-7-yl]-7-[3-(N-methylmethanesulfonamido)phenyl]-4-oxo-3,4-dihydroquinazolin-2-yl}-2-(3,5-difluorophenyl)ethyl]-2-[(2S,4R)-9-(difluoromethyl)-5,5-difluoro-7,8-diazatricyclo[4.3.0.0^2,^4]nona-1(6),8-dien-7-yl]acetamide] | > 500 | 0.28
Cn1nc(NS(C)(=O)=O)c2c(Cl)ccc(-n3c([C@H](Cc4cc(F)cc(F)c4)NC(=O)Cn4nc(C(F)F)c5c4C(F)(F)[C@@H]4C[C@H]54)nc4cc(-c5cccc(S(=O)(=O)C(C)(C)C)c5)ccc4c3=O)c21 (atropisomer, axis not shown; (P)) [Example 33, N—((S)-1-(7-(3-(tert-butylsulfonyl)phenyl)-(3P)-3-(4-chloro-1-methyl-3-(methylsulfonamido)-1H-indazol-7-yl)-4-oxo-3,4-dihydroquinazolin-2-yl)-2-(3,5-difluorophenyl)ethyl)-2-((3bS,4aR)-3-(difluoromethyl)-5,5-difluoro-3b,4,4a,5-tetrahydro-1H-cyclopropa[3,4]cyclopenta[1,2-c]pyrazol-1-yl)acetamide] | > 500 | 0.12
CS(=O)(=O)Nc1nn(CC(F)F)c2c(-n3c([C@H](Cc4cc(F)cc(F)c4)NC(=O)Cn4nc(C(F)F)c5c4C(F)(F)[C@@H]4C[C@H]54)nc4cc(-c5ncccc5S(C)(=O)=O)ccc4c3=O)ccc(Cl)c12 (atropisomer, axis not shown) [Example 136, N-[(1S)-1-{3-[4-chloro-1-(2,2-difluoroethyl)-3-methanesulfonamido-1H-indazol-7-yl]-7-(3-methanesulfonylpyridin-2-yl)-4-oxo-3,4-dihydroquinazolin-2-yl}-2-(3,5-difluorophenyl)ethyl]-2-[(2S,4R)-9-(difluoromethyl)-5,5-difluoro-7,8-diazatricyclo[4.3.0.0^2,^4]nona-1(6),8-dien-7-yl]acetamide] | > 500 | 0.046
Cc1cc(C)nc(-c2ccc3c(=O)n(-c4ccc(Cl)c5c(NS(C)(=O)=O)nn(CC(F)(F)F)c45)c([C@H](Cc4cc(F)cc(F)c4)NC(=O)Cn4nc(C(F)F)c5c4C(F)(F)[C@@H]4C[C@H]54)nc3c2)c1 (atropisomer, axis not shown) [Example 101, N-[(1S)-1-{3-[4-chloro-3-methanesulfonamido-1-(2,2,2-trifluoroethyl)-1H-indazol-7-yl]-7-(4,6-dimethylpyridin-2-yl)-4-oxo-3,4-dihydroquinazolin-2-yl}-2-(3,5-difluorophenyl)ethyl]-2-[(2S,4R)-9-(difluoromethyl)-5,5-difluoro-7,8-diazatricyclo[4.3.0.0^2,^4]nona-1(6),8-dien-7-yl]acetamide] | > 500 | 0.21
CCc1ccnc(-c2ccc3c(=O)n(-c4ccc(Cl)c5c(NS(=O)(=O)C6CC6)nn(CC(F)F)c45)c([C@H](Cc4cc(F)cc(F)c4)NC(=O)Cn4nc(C(F)F)c5c4C(F)(F)[C@@H]4C[C@H]54)nc3c2)n1 (atropisomer, axis not shown; (P)) [Example 93, N—((S)-1-((3P)-3-(4-chloro-3-(cyclopropanesulfonamido)-1-(2,2-difluoroethyl)-1H-indazol-7-yl)-7-(4-ethylpyrimidin-2-yl)-4-oxo-3,4-dihydroquinazolin-2-yl)-2-(3,5-difluorophenyl)ethyl)-2-((3bS,4aR)-3-(difluoromethyl)-5,5-difluoro-3b,4,4a,5-tetrahydro-1H-cyclopropa[3,4]cyclopenta[1,2-c]pyrazol-1-yl)acetamide] | > 500 | 0.18
CCc1cc(-c2ccc3c(=O)n(-c4ccc(Cl)c5c(NS(=O)(=O)C6CC6)nn(CC(F)F)c45)c([C@H](Cc4cc(F)cc(F)c4)NC(=O)Cn4nc(C(F)F)c5c4C(F)(F)[C@@H]4C[C@H]54)nc3c2)nc(C)n1 (atropisomer, axis not shown; (P)) [Example 94, N—((S)-1-((3P)-3-(4-chloro-3-(cyclopropanesulfonamido)-1-(2,2-difluoroethyl)-1H-indazol-7-yl)-7-(6-ethyl-2-methylpyrimidin-4-yl)-4-oxo-3,4-dihydroquinazolin-2-yl)-2-(3,5-difluorophenyl)ethyl)-2-((3bS,4aR)-3-(difluoromethyl)-5,5-difluoro-3b,4,4a,5-tetrahydro-1H-cyclopropa[3,4]cyclopenta[1,2-c]pyrazol-1-yl)acetamide] | > 500 | 0.13
CN(c1ccc(-c2ccc3c(=O)n(-c4ccc(Cl)c5c(NS(=O)(=O)C6CC6)nn(CC(F)F)c45)c([C@H](Cc4cc(F)cc(F)c4)NC(=O)Cn4nc(C(F)F)c5c4C(F)(F)[C@@H]4C[C@H]54)nc3c2)cc1)S(C)(=O)=O (atropisomer, axis not shown) [Example 147, N-[(1S)-1-{3-[4-chloro-3-cyclopropanesulfonamido-1-(2,2-difluoroethyl)-1H-indazol-7-yl]-7-[4-(N-methylmethanesulfonamido)phenyl]-4-oxo-3,4-dihydroquinazolin-2-yl}-2-(3,5-difluorophenyl)ethyl]-2-[(2S,4R)-9-(difluoromethyl)-5,5-difluoro-7,8-diazatricyclo[4.3.0.0^2,^4]nona-1(6),8-dien-7-yl]acetamide] | > 500 | 0.34
Cn1nc(NS(C)(=O)=O)c2c(Cl)ccc(-n3c([C@H](Cc4cc(F)cc(F)c4)NC(=O)Cn4nc(C(F)F)c5c4C(F)(F)[C@@H]4C[C@H]54)nc4cc(-c5cccc(C(C)(C)C)n5)ccc4c3=O)c21 (atropisomer, axis not shown; (P)) [Example 35, N—((S)-1-(7-(6-(tert-butyl)pyridin-2-yl)-(3P)-3-(4-chloro-1-methyl-3-(methylsulfonamido)-1H-indazol-7-yl)-4-oxo-3,4-dihydroquinazolin-2-yl)-2-(3,5-difluorophenyl)ethyl)-2-((3bS,4aR)-3-(difluoromethyl)-5,5-difluoro-3b,4,4a,5-tetrahydro-1H-cyclopropa[3,4]cyclopenta[1,2-c]pyrazol-1-yl)acetamide] | > 500 | 0.97
Cn1nc(NS(C)(=O)=O)c2c(Cl)ccc(-n3c([C@H](Cc4cc(F)cc(F)c4)NC(=O)Cn4nc(C(F)F)c5c4C(F)(F)[C@@H]4C[C@H]54)nc4cc(-c5cc(S(C)(=O)=O)ccn5)ccc4c3=O)c21 (atropisomer, axis not shown; (P)) [Example 4, N—((S)-1-((3P)-3-(4-chloro-1-methyl-3-(methylsulfonamido)-1H-indazol-7-yl)-7-(4-(methylsulfonyl)pyridin-2-yl)-4-oxo-3,4-dihydroquinazolin-2-yl)-2-(3,5-difluorophenyl)ethyl)-2-((3bS,4aR)-3-(difluoromethyl)-5,5-difluoro-3b,4,4a,5-tetrahydro-1H-cyclopropa[3,4]cyclopenta[1,2-c]pyrazol-1-yl)acetamide] | > 500 | 0.053
COc1cnc(-c2ccc3c(=O)n(-c4ccc(Cl)c5c(NS(=O)(=O)C6CC6)nn(CC(F)F)c45)c([C@H](Cc4cc(F)cc(F)c4)NC(=O)Cn4nc(C(F)F)c5c4C(F)(F)[C@@H]4C[C@H]54)nc3c2)nc1 (atropisomer, axis not shown) [Example 98, N-[(1S)-1-{3-[4-chloro-3-cyclopropanesulfonamido-1-(2,2-difluoroethyl)-1H-indazol-7-yl]-7-(5-methoxypyrimidin-2-y1)-4-oxo-3,4-dihydroquinazolin-2-yl}-2-(3,5-difluorophenyl)ethyl]-2-[(2S,4R)-9-(difluoromethyl)-5,5-difluoro-7,8-diazatricyclo[4.3.0.0^2,^4]nona-1(6),8-dien-7-yl]acetamide] | > 500 | 0.16
CS(=O)(=O)Nc1nn(CC(F)(F)F)c2c(-n3c([C@H](Cc4cc(F)cc(F)c4)NC(=O)Cn4nc(C(F)F)c5c4C(F)(F)[C@@H]4C[C@H]54)nc4cc(-c5nccc(C(F)F)n5)ccc4c3=O)ccc(Cl)c12 (atropisomer, axis not shown) [Example 104, N-[(1S)-1-{3-[4-chloro-3-methanesulfonamido-1-(2,2,2-trifluoroethyl)-1H-indazol-7-yl]-7-[4-(difluoromethyl)pyrimidin-2-yl]-4-oxo-3,4-dihydroquinazolin-2-yl}-2-(3,5-difluorophenyl)ethyl]-2-[(2S,4R)-9-(difluoromethyl)-5,5-difluoro-7,8-diazatricyclo[4.3.0.0^2,^4]nona-1(6),8-dien-7-yl]acetamide] | > 500 | 0.063
